One test has as its target BTK (Homo sapiens, UniProt Q06187). As to the kind of experiment: biochemical. The following applies: read-out: BTK inhibition (%).
BTK, sequence (Q06187 402-655 limits assumed): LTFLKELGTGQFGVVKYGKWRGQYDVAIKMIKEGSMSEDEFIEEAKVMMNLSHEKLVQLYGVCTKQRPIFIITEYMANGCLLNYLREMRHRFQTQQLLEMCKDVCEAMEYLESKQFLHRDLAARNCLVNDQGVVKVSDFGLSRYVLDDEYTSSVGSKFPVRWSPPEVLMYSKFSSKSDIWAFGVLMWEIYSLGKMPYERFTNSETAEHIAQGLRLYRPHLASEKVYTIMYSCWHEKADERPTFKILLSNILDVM
`C/C=C(\C)C(=O)N[C@@H](c1ccccc1)[C@@H](O)C(=O)O[C@H]1C[C@@]2(O)[C@@H](OC(=O)c3ccccc3)[C@@H]3[C@]4(OC(C)=O)CO[C@@H]4C[C@H](O)[C@@]3(C)C(=O)[C@H](OC(C)=O)C(=C1C)C2(C)C` [PCM-0214711]: the inhibition at 10 µM is -8.6%. With `COc1ccc(N(C(=O)Oc2c(C)cccc2C)c2ccnc(Nc3ccc(N4CCN(C)CC4)cc3)n2)c(OC)c1` [PCM-0215345], the inhibition at 10 µM came to 24.1%.

Still in this test, the particulars now being: read-out: BTK inhibition (%), 0.75 uM BTK, […] probe 3l, 15 min preincubation.
Turning to `CC(C)c1cc(C(=O)N2Cc3ccc(CN4CCN(C)CC4)cc3C2)c(O)cc1O` [PCM-0095012], the inhibition at 10 µM is -6.2%. Take `CS(=O)(=O)OCCCCOS(C)(=O)=O` [PCM-0085767]: the inhibition at 10 µM is -1.4%. On to `CC1CCN(CC[C@H]2CCCN2S(=O)(=O)c2cccc(O)c2)CC1` [PCM-0065410], for which the inhibition at 10 µM worked out at 7.8%. As to `NC[C@H]1O[C@H](O[C@H]2[C@H](O[C@@H]3O[C@H](CO)[C@@H](O)[C@H]3O)[C@@H](O)[C@H](N)C[C@@H]2N)[C@H](N)[C@@H](O)[C@@H]1O` [PCM-0215219], the inhibition at 10 µM is 25.5%. Take `O=[N+]([O-])c1cn2c(n1)OC[C@@H](OCc1ccc(OC(F)(F)F)cc1)C2` [PCM-0094995]: the inhibition at 10 µM was 3.1%. Still for that read-out and setting: as for `Cc1cnc(C(=O)NCCc2ccc(S(=O)(=O)NC(=O)NC3CCCCC3)cc2)cn1` [PCM-0065278], the figure is 13.2%. Regarding `CCCCCCCCCC(C)=O` [PCM-0215930], the inhibition at 10 µM is 10.1%.

Regarding `OCc1cc(C(O)CNCCCCCCOCCCCc2ccccc2)ccc1O` (stereo not drawn) [PCM-0065569], the inhibition at 10 µM was -12.4%. As to `O=c1[nH]cnc2nc[nH]c12` [PCM-0091022], the inhibition at 10 µM is -22.1%. For the molecule `CCOc1cc(C(=O)N2CCC(N3CCN(C)CC3)CC2)ccc1Nc1ncc2c(n1)N(C1CCCC1)c1ccccc1C(=O)N2C` [PCM-0213331], the inhibition at 10 µM turned out to be 0%. As for `CC1(C)Cc2c(sc(NC(=O)c3ccn[nH]3)c2C(N)=O)C(C)(C)O1` [PCM-0216042], the inhibition at 10 µM worked out at 1.5%.

On to `COc1ccc(C(=O)O)c(O)c1` [PCM-0215974], for which the inhibition at 10 µM is 2.3%. On the same count and under the same terms, as for `Cc1noc(-c2ccc(CSCCC(=O)O)cc2)c1NC(=O)OC(C)c1ccccc1Cl` (stereo not drawn) [PCM-0094905], the figure is -21%; as for `Cc1c(C(=O)Nc2ccc(N3CCC(N4CCOCC4)CC3)c(C#N)c2)cnn1-c1ccc(Cl)cc1` [PCM-0215293], -11.7%; as for `NC(=O)NO` [PCM-0065169], 10.9%. On to `COc1ccc(CCC(=O)c2c(O)cc(O[C@@H]3O[C@H](CO)[C@@H](O)[C@H](O)[C@H]3O[C@@H]3O[C@@H](C)[C@H](O)[C@@H](O)[C@H]3O)cc2O)cc1O` [PCM-0094869], for which the inhibition at 10 µM came to 9.3%. As to `Clc1ccc(C(Cn2ccnc2)OCc2c(Cl)cccc2Cl)c(Cl)c1` (stereo not drawn) [PCM-0085849], the inhibition at 10 µM is 38.9%. For the molecule `Nc1ccc(S(=O)(=O)Nc2cncc(Cl)n2)cc1` [PCM-0215142], the inhibition at 10 µM was -10.9%. Turning to `CC(C)n1nc(-c2ccc(NC(=O)Nc3cc(C(F)(F)F)ccc3F)cc2)c2c(N)ncnc21` [PCM-0215828], the inhibition at 10 µM worked out at 106%. As to `Nc1nc2c(c(=O)[nH]1)N(C=O)C(CNc1ccc(C(=O)N[C@@H](CCC(=O)O)C(=O)O)cc1)CN2` (stereo partly drawn) [PCM-0086396], the inhibition at 10 µM is -17.9%. With `CNCc1ccc(-c2cc(-c3nc(-c4ccc(S(=O)(=O)C(C)C)cc4)cnc3N)on2)cc1` [PCM-0213360], the inhibition at 10 µM was found to be 17.9%.

With `C[C@H](Nc1ncnc2nc[nH]c12)c1cc2ccc(F)cc2nc1-c1ccccn1` [PCM-0215539], the inhibition at 10 µM was 3.4%. Same read-out and setting: as for `CC[C@H]1OC(=O)[C@H](C)[C@@H](O[C@H]2C[C@@](C)(OC)[C@@H](O)[C@H](C)O2)[C@H](C)[C@@H](O[C@@H]2O[C@H](C)C[C@H](N(C)C)[C@H]2O)[C@](C)(OC)C[C@@H](C)C(=O)[C@H](C)[C@@H](O)[C@]1(C)O` [PCM-0214635], the figure is 9.3%. Consider `O=C(/C=C/c1ccccc1)OCc1ccccc1` [PCM-0215962], for which the inhibition at 10 µM came to 6.9%. Still for that read-out and setting: as for `Cc1ccc(C(=O)O)c(O)c1` [PCM-0216186], the figure is 10%; as for `Cc1ccc(-n2nc(C(C)(C)C)cc2NC(=O)NCc2cc(F)ccc2Oc2ccc3c(cnn3CCO)c2)cc1` [PCM-0215475], 28.3%; as for `CCCCCCCCCCCCCCCC(=O)OC[C@H](O)[C@H]1OC(=O)C(O)=C1O` [PCM-0095304], -34.2%. With `CO/N=C(\C(=O)N[C@@H]1C(=O)N2C(C(=O)O)=C(CSc3nnnn3C)CS[C@H]12)c1csc(N)n1` [PCM-0214827], the inhibition at 10 µM turned out to be 8.6%. The same measure, in the same setting: as for `Nc1ccccc1NC(=O)c1ccc(CNc2nccc(-c3cccnc3)n2)cc1` [PCM-0094926], the figure is 2.8%; as for `Nc1nc(N)c2nc(-c3cccc(O)c3)cnc2n1` [PCM-0095537], -35.7%; as for `CNCCC(Oc1ccc(C(F)(F)F)cc1)c1ccccc1` (stereo not drawn) [PCM-0065327], -7.8%. Turning to `CONC(=O)c1ccccc1Nc1cc(Nc2cc(C)nn2C(C)C)ncc1Cl` [PCM-0215811], the inhibition at 10 µM was -10.3%. For the molecule `Fc1ccc(Cn2c(Cl)nc3ccccc32)cc1` [PCM-0216108], the inhibition at 10 µM was -52.5%. For `CCC1C/C(=C\c2cccnc2)C(=O)/C(=C/c2cccnc2)C1` (stereo not drawn) [PCM-0215528], the inhibition at 10 µM came out at 10%.

For the molecule `COc1c(N2CCNC(C)C2)c(F)cc2c(=O)c(C(=O)O)cn(C3CC3)c12` (stereo not drawn) [PCM-0086315], the inhibition at 10 µM is -40.5%. For the molecule `C=CCc1cc(OC)c(OC)c(OC)c1` [PCM-0215912], the inhibition at 10 µM came to 3.1%. The same measure, in the same setting: as for `O=c1[nH]c2ccccc2n1C1CCN(Cc2ccc(-c3[nH]c4cc5ncnc5cc4nc3-c3ccccc3)cc2)CC1` [PCM-0215535], the figure is 18.6%; as for `CC(C)(CO)c1cc2cc(NC(=O)C3(c4ccc5c(c4)OC(F)(F)O5)CC3)c(F)cc2n1C[C@@H](O)CO` [PCM-0095580], -27.8%; as for `COc1cc(C[C@@H](COC2OC(CO)C(O)C(O)C2O)[C@@H](COC2OC(CO)C(O)C(O)C2O)Cc2ccc(O)c(OC)c2)ccc1O` (stereo partly drawn) [PCM-0214976], 2.3%. Consider `CCC(=O)O[C@]1(C(=O)CCl)[C@@H](C)C[C@H]2[C@@H]3C[C@H](F)C4=CC(=O)C=C[C@]4(C)[C@@]3(F)[C@@H](O)C[C@@]21C` [PCM-0214768], for which the inhibition at 10 µM came out at 22.8%. As for `N#Cc1ccc([C@H]2CCc3cncn32)c(F)c1` [PCM-0215764], the inhibition at 10 µM was 6.2%. As for `COc1ccc2cc(-c3nc(-c4ccc([S+](C)[O-])cc4)[nH]c3-c3ccncc3)ccc2c1` (stereo not drawn) [PCM-0095143], the inhibition at 10 µM was found to be 33.8%. Regarding `Cc1cccc(-c2[nH]c(C(C)(C)C)nc2-c2ccc3nccnc3c2)n1` [PCM-0065614], the inhibition at 10 µM was 25.5%.

Consider `NC(=O)c1[nH]cnc1N` [PCM-0214903], for which the inhibition at 10 µM was -43.6%. As to `COc1cc2nccc(Oc3ccc(NC(=O)NC4CC4)c(Cl)c3)c2cc1C(N)=O` [PCM-0095014], the inhibition at 10 µM came to 36.6%. On to `CC1(C)[C@H]2CC[C@]1(C)[C@H](O)C2` [PCM-0215078], for which the inhibition at 10 µM is -20.2%. `O=C(CCCCCCC(=O)Nc1ccccc1)NO` [PCM-0086223]: the inhibition at 10 µM was -9%. Consider `C/C=C(/C)C(=O)OC(=O)/C(C)=C\C` [PCM-0215943], for which the inhibition at 10 µM is -8.6%.

As for `C[C@@H]1O[C@@H](O[C@H]2[C@H](O[C@H]3CC[C@@]4(C)[C@@H](CC[C@]5(C)[C@@H]4CC=C4[C@@H]6CC(C)(C)CC[C@]6(C(=O)O[C@@H]6O[C@H](CO[C@@H]7O[C@H](CO)[C@@H](O[C@@H]8O[C@@H](C)[C@H](O)[C@@H](O)[C@H]8O)[C@H](O)[C@H]7O)[C@@H](O)[C@H](O)[C@H]6O)CC[C@]45C)[C@]3(C)CO)OC[C@H](O)[C@@H]2O)[C@H](O)[C@H](O)[C@H]1O` [PCM-0215008], the inhibition at 10 µM was -10.1%. For `O=S(=O)(O)Oc1ccc(C(c2ccc(OS(=O)(=O)O)cc2)c2ccccn2)cc1` [PCM-0095575], the inhibition at 10 µM was -12.5%. On to `O=c1cc(-c2ccc(O)cc2)oc2c([C@@H]3OC[C@H](O)[C@H](O)[C@H]3O)c(O)c([C@@H]3O[C@H](CO)[C@@H](O)[C@H](O)[C@H]3O)c(O)c12` [PCM-0216486], for which the inhibition at 10 µM was -13.9%. Same read-out and setting: as for `CC(C)(O/N=C(\C(=O)N[C@@H]1C(=O)N2C(C(=O)[O-])=C(C[n+]3ccccc3)CS[C@H]12)c1csc(N)n1)C(=O)O` [PCM-0215253], the figure is 6.8%; as for `Cc1cccc(C)c1N(CC(=O)Nc1ccc(-c2ncon2)cc1)C(=O)C1CCS(=O)(=O)CC1` [PCM-0216196], 2.3%.

In the case of `CO/N=C(\C(=O)N[C@@H]1C(=O)N2C(C(=O)[O-])=C(C[n+]3cccc4c3CCC4)CS[C@H]12)c1csc(N)n1` [PCM-0214899], the inhibition at 10 µM was -4.7%. Still for that read-out and setting: as for `NCCOc1cc(C(=O)Nc2cc(OCCN)c3ccccc3n2)nc(C(=O)Nc2cc(OCCN)c3ccccc3n2)c1` [PCM-0215476], the figure is 59.5%; as for `O=C(O)/C=C/c1ccc(O)c(O)c1` [PCM-0064590], -21.8%.

In the case of `COc1ccc2c(c1)[C@]1(C[C@H]1c1ccc3c(/C=C/c4ccc(CN5C[C@@H](C)O[C@@H](C)C5)cc4)n[nH]c3c1)C(=O)N2` [PCM-0215815], the inhibition at 10 µM is 86.9%. For `O=C(Nc1ccc([N+](=O)[O-])cc1)Nc1ccc([N+](=O)[O-])cc1` [PCM-0215156], the inhibition at 10 µM is -14%.

Consider `Cn1cc(/C=C2\C(=O)Nc3cccnc32)c2ccccc21` [PCM-0095342], for which the inhibition at 10 µM came out at 22.8%. With `COc1cc(O)c2c(c1)oc(=O)c1c3cc(O)c(O)cc3oc21` [PCM-0216602], the inhibition at 10 µM was 47.9%. Still for that read-out and setting: as for `CN(C)Cc1cccc(N=C(c2ccccc2)c2c(O)[nH]c3cc(C(N)=O)ccc23)c1` [PCM-0095090], the figure is 5.5%; as for `C[C@]12CC[C@@H]3c4ccc(O)cc4CC[C@H]3[C@@H]1C[C@@H](O)[C@@H]2O` [PCM-0086283], 5.4%. As to `CC(C)=CCc1cc2c(cc1O)O[C@H](c1ccc(O)cc1)CC2=O` [PCM-0216180], the inhibition at 10 µM came out at 54.1%. For `Cc1nc2cc(F)c(F)cc2n1-c1cncc(Nc2ccc(C(F)(F)F)cc2)n1` [PCM-0215953], the inhibition at 10 µM was -6.2%.

As a reminder, the inhibition is the relative decrease from the control value, in per cent.

Source of the values: article PMC8041284, “Tunable Methacrylamides for Covalent Ligand Directed Release Chemistry” (Journal of the American Chemical Society, 2021).
